{
  "source": "PubChem BioAssay (NCI)",
  "assay_in_all_cases": "NCI-60 cell line screen, 48 h",
  "key": {"786-0 renal": {"test_system": "786-0 renal"}, "A498 renal": {"test_system": "A498 renal"}, "ACHN renal": {"test_system": "ACHN renal"}, "CAKI-1 renal": {"test_system": "CAKI-1 renal"}, "CCRF-CEM leukemia": {"test_system": "CCRF-CEM leukemia"}, "DU-145 prostate": {"test_system": "DU-145 prostate"}, "EKVX NSCLC": {"test_system": "EKVX NSCLC"}, "HCC-2998 colon": {"test_system": "HCC-2998 colon"}, "HCT-116 colon": {"test_system": "HCT-116 colon"}, "HCT-15 colon": {"test_system": "HCT-15 colon"}, "HL-60(TB) leukemia": {"test_system": "HL-60(TB) leukemia"}, "HOP-62 NSCLC": {"test_system": "HOP-62 NSCLC"}, "HOP-92 NSCLC": {"test_system": "HOP-92 NSCLC"}, "HS 578T breast": {"test_system": "HS 578T breast"}, "IGROV1 ovarian": {"test_system": "IGROV1 ovarian"}, "K-562 leukemia": {"test_system": "K-562 leukemia"}, "KM12 colon": {"test_system": "KM12 colon"}, "LOX IMVI melanoma": {"test_system": "LOX IMVI melanoma"}, "M14 melanoma": {"test_system": "M14 melanoma"}, "MALME-3M melanoma": {"test_system": "MALME-3M melanoma"}, "MCF7 breast": {"test_system": "MCF7 breast"}, "MDA-MB-231 breast": {"test_system": "MDA-MB-231 breast"}, "MDA-MB-435": {"test_system": "MDA-MB-435"}, "MOLT-4 leukemia": {"test_system": "MOLT-4 leukemia"}, "NCI-H23 lung": {"test_system": "NCI-H23 lung"}, "NCI-H460 lung": {"test_system": "NCI-H460 lung"}, "NCI-H522 lung": {"test_system": "NCI-H522 lung"}, "OVCAR-5 ovarian": {"test_system": "OVCAR-5 ovarian"}, "OVCAR-8 ovarian": {"test_system": "OVCAR-8 ovarian"}, "PC-3 prostate": {"test_system": "PC-3 prostate"}, "RPMI-8226 leukemia": {"test_system": "RPMI-8226 leukemia"}, "SF-268 CNS": {"test_system": "SF-268 CNS"}, "SF-295 CNS": {"test_system": "SF-295 CNS"}, "SF-539 CNS": {"test_system": "SF-539 CNS"}, "SK-MEL-2 melanoma": {"test_system": "SK-MEL-2 melanoma"}, "SK-MEL-5 melanoma": {"test_system": "SK-MEL-5 melanoma"}, "SK-OV-3 ovarian": {"test_system": "SK-OV-3 ovarian"}, "SNB-19 CNS": {"test_system": "SNB-19 CNS"}, "SNB-75 CNS": {"test_system": "SNB-75 CNS"}, "SR leukemia": {"test_system": "SR leukemia"}, "SW-620 colon": {"test_system": "SW-620 colon"}, "TK-10 renal": {"test_system": "TK-10 renal"}, "U251 CNS": {"test_system": "U251 CNS"}, "UACC-62 melanoma": {"test_system": "UACC-62 melanoma"}, "UO-31 renal": {"test_system": "UO-31 renal"}},
  "note": "Several values for one entry are separate records, joined by “and”; a condition that tells them apart may be missing. Equal entries are not always repeated.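 The compound was tested at five concentrations on cells cultured in 96-well plates, with a 48-hour exposure period. GI50 marks 50% less growth. TGI marks complete inhibition of growth.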",
  "data": [
    {"smiles": "O=C(/C=C/c1nnc2n(Cc3ccccc3)c(=O)c3c4c(sc3n12)CCCC4)c1ccccc1", "values": [
      {"measurement": "GI50", "setting": "786-0 renal", "value": "1560 nM and 2360 nM"},
      {"measurement": "GI50", "setting": "A498 renal", "value": "> 100000", "unit": "nM"},
      {"measurement": "TGI", "setting": "A498 renal", "value": "> 100000", "unit": "nM"},
      {"measurement": "GI50", "setting": "ACHN renal", "value": 3900, "unit": "nM"},
      {"measurement": "TGI", "setting": "CAKI-1 renal", "value": "> 100000", "unit": "nM"},
      {"measurement": "GI50", "setting": "CCRF-CEM leukemia", "value": "328 nM and 205 nM"},
      {"measurement": "TGI", "setting": "CCRF-CEM leukemia", "value": "4690 nM and 699 nM"},
      {"measurement": "GI50", "setting": "DU-145 prostate", "value": "> 100000", "unit": "nM"},
      {"measurement": "TGI", "setting": "DU-145 prostate", "value": "> 100000", "unit": "nM"},
      {"measurement": "GI50", "setting": "EKVX NSCLC", "value": "> 100000", "unit": "nM"},
      {"measurement": "TGI", "setting": "EKVX NSCLC", "value": "> 100000", "unit": "nM"},
      {"measurement": "GI50", "setting": "HCC-2998 colon", "value": "> 100000", "unit": "nM"},
      {"measurement": "TGI", "setting": "HCC-2998 colon", "value": "> 100000", "unit": "nM"},
      {"measurement": "GI50", "setting": "HCT-116 colon", "value": 310, "unit": "nM"},
      {"measurement": "TGI", "setting": "HCT-116 colon", "value": 1120, "unit": "nM"},
      {"measurement": "GI50", "setting": "HCT-15 colon", "value": "2040 nM and 389 nM"},
      {"measurement": "TGI", "setting": "HCT-15 colon", "value": "> 100000", "unit": "nM"},
      {"measurement": "GI50", "setting": "HL-60(TB) leukemia", "value": "407 nM and 332 nM"},
      {"measurement": "TGI", "setting": "HL-60(TB) leukemia", "value": "> 100000", "unit": "nM"},
      {"measurement": "TGI", "setting": "HOP-62 NSCLC", "value": "> 100000", "unit": "nM"},
      {"measurement": "GI50", "setting": "HOP-92 NSCLC", "value": 1550, "unit": "nM"},
      {"measurement": "TGI", "setting": "HOP-92 NSCLC", "value": "> 100000", "unit": "nM"},
      {"measurement": "GI50", "setting": "HS 578T breast", "value": "3760 nM and 502 nM"},
      {"measurement": "TGI", "setting": "HS 578T breast", "value": "> 100000", "unit": "nM"},
      {"measurement": "GI50", "setting": "IGROV1 ovarian", "value": "> 100000", "unit": "nM"},
      {"measurement": "TGI", "setting": "IGROV1 ovarian", "value": "> 100000", "unit": "nM"},
      {"measurement": "GI50", "setting": "K-562 leukemia", "value": "902 nM and 199 nM"},
      {"measurement": "TGI", "setting": "K-562 leukemia", "value": "> 100000", "unit": "nM"},
      {"measurement": "GI50", "setting": "KM12 colon", "value": 4100, "unit": "nM"},
      {"measurement": "GI50", "setting": "LOX IMVI melanoma", "value": 3480, "unit": "nM"},
      {"measurement": "TGI", "setting": "M14 melanoma", "value": "> 100000", "unit": "nM"},
      {"measurement": "GI50", "setting": "MALME-3M melanoma", "value": "> 100000", "unit": "nM"},
      {"measurement": "TGI", "setting": "MALME-3M melanoma", "value": "> 100000", "unit": "nM"},
      {"measurement": "TGI", "setting": "MCF7 breast", "value": "> 100000", "unit": "nM"},
      {"measurement": "GI50", "setting": "MDA-MB-231 breast", "value": 219, "unit": "nM"},
      {"measurement": "TGI", "setting": "MDA-MB-231 breast", "value": 550, "unit": "nM"},
      {"measurement": "GI50", "setting": "MDA-MB-435", "value": 3540, "unit": "nM"},
      {"measurement": "GI50", "setting": "MOLT-4 leukemia", "value": "622 nM and 248 nM"},
      {"measurement": "TGI", "setting": "MOLT-4 leukemia", "value": 769, "unit": "nM"},
      {"measurement": "GI50", "setting": "NCI-H23 lung", "value": "> 100000", "unit": "nM"},
      {"measurement": "TGI", "setting": "NCI-H23 lung", "value": "> 100000", "unit": "nM"},
      {"measurement": "GI50", "setting": "NCI-H460 lung", "value": "> 100000", "unit": "nM"},
      {"measurement": "TGI", "setting": "NCI-H460 lung", "value": "> 100000", "unit": "nM"},
      {"measurement": "GI50", "setting": "NCI-H522 lung", "value": 1090, "unit": "nM"},
      {"measurement": "TGI", "setting": "NCI-H522 lung", "value": "> 100000", "unit": "nM"},
      {"measurement": "GI50", "setting": "OVCAR-5 ovarian", "value": "> 100000", "unit": "nM"},
      {"measurement": "TGI", "setting": "OVCAR-5 ovarian", "value": "> 100000", "unit": "nM"},
      {"measurement": "GI50", "setting": "OVCAR-8 ovarian", "value": 38.7, "unit": "nM"},
      {"measurement": "TGI", "setting": "OVCAR-8 ovarian", "value": 419, "unit": "nM"},
      {"measurement": "GI50", "setting": "PC-3 prostate", "value": 1420, "unit": "nM"},
      {"measurement": "TGI", "setting": "PC-3 prostate", "value": 4440, "unit": "nM"},
      {"measurement": "GI50", "setting": "RPMI-8226 leukemia", "value": "177 nM and 254 nM"},
      {"measurement": "TGI", "setting": "RPMI-8226 leukemia", "value": "817 nM and 738 nM"},
      {"measurement": "GI50", "setting": "SF-268 CNS", "value": 4590, "unit": "nM"},
      {"measurement": "TGI", "setting": "SF-268 CNS", "value": "> 100000", "unit": "nM"},
      {"measurement": "TGI", "setting": "SF-295 CNS", "value": "> 100000", "unit": "nM"},
      {"measurement": "GI50", "setting": "SF-539 CNS", "value": "> 100000", "unit": "nM"},
      {"measurement": "TGI", "setting": "SF-539 CNS", "value": "> 100000", "unit": "nM"},
      {"measurement": "GI50", "setting": "SK-MEL-2 melanoma", "value": 3200, "unit": "nM"},
      {"measurement": "GI50", "setting": "SK-MEL-5 melanoma", "value": "> 100000", "unit": "nM"},
      {"measurement": "TGI", "setting": "SK-MEL-5 melanoma", "value": "> 100000", "unit": "nM"},
      {"measurement": "GI50", "setting": "SK-OV-3 ovarian", "value": "> 100000", "unit": "nM"},
      {"measurement": "TGI", "setting": "SK-OV-3 ovarian", "value": "> 100000", "unit": "nM"},
      {"measurement": "GI50", "setting": "SNB-19 CNS", "value": "> 100000", "unit": "nM"},
      {"measurement": "TGI", "setting": "SNB-19 CNS", "value": "> 100000", "unit": "nM"},
      {"measurement": "GI50", "setting": "SNB-75 CNS", "value": 21300, "unit": "nM"},
      {"measurement": "TGI", "setting": "SNB-75 CNS", "value": 91200, "unit": "nM"},
      {"measurement": "GI50", "setting": "SR leukemia", "value": "52.2 nM and 217 nM"},
      {"measurement": "TGI", "setting": "SR leukemia", "value": 658, "unit": "nM"},
      {"measurement": "GI50", "setting": "SW-620 colon", "value": 3140, "unit": "nM"},
      {"measurement": "GI50", "setting": "TK-10 renal", "value": 354, "unit": "nM"},
      {"measurement": "TGI", "setting": "TK-10 renal", "value": 1380, "unit": "nM"},
      {"measurement": "GI50", "setting": "U251 CNS", "value": 2220, "unit": "nM"},
      {"measurement": "TGI", "setting": "U251 CNS", "value": 7760, "unit": "nM"},
      {"measurement": "GI50", "setting": "UACC-62 melanoma", "value": "> 100000", "unit": "nM"},
      {"measurement": "TGI", "setting": "UACC-62 melanoma", "value": "> 100000", "unit": "nM"},
      {"measurement": "GI50", "setting": "UO-31 renal", "value": 3060, "unit": "nM"}
    ]}
  ]
}
